Reference: the NIST ThermoML archive (doi:10.1021/je049777o)

Experiment: xn = mol fraction of the nth substance listed
Settings: 101.3 kPa, Liquid

Clc1ccccc1 [chlorobenzene] + COC(=O)OC
Settings	mass density [kg/m3]	viscosity [mPa·s]
293.15 K, x2 = 0	1106.74	0.8084
293.15 K, x2 = 0.1225	1102.19	0.7794
293.15 K, x2 = 0.238	1097.84	0.7586
293.15 K, x2 = 0.3499	1093.69	0.7315
293.15 K, x2 = 0.4545	1089.67	0.7132
293.15 K, x2 = 0.5559	1085.85	0.698
293.15 K, x2 = 0.6518	1082.22	0.6805
293.15 K, x2 = 0.7445	1078.84	0.6567
293.15 K, x2 = 0.8332	1075.58	0.6449
293.15 K, x2 = 0.9182	1072.42	0.6244
298.15 K, x2 = 0	1101.33	0.7422
298.15 K, x2 = 0.1225	1096.65	0.7318
298.15 K, x2 = 0.238	1092.16	0.7193
298.15 K, x2 = 0.3499	1087.88	0.6956
298.15 K, x2 = 0.4545	1083.72	0.6864
298.15 K, x2 = 0.5559	1079.81	0.6627
298.15 K, x2 = 0.6518	1076.05	0.6427
298.15 K, x2 = 0.7445	1072.55	0.6226
298.15 K, x2 = 0.8332	1069.17	0.6017
298.15 K, x2 = 0.9182	1065.93	0.5856
303.15 K, x2 = 0	1095.96	0.7053
303.15 K, x2 = 0.1225	1091.12	0.6862
303.15 K, x2 = 0.238	1086.51	0.6624
303.15 K, x2 = 0.3499	1082.09	0.646
303.15 K, x2 = 0.4545	1077.8	0.6408
303.15 K, x2 = 0.5559	1073.76	0.6134
303.15 K, x2 = 0.6518	1069.91	0.6014
303.15 K, x2 = 0.7445	1066.28	0.5781
303.15 K, x2 = 0.8332	1062.78	0.5632
303.15 K, x2 = 0.9182	1059.45	0.5487
313.15 K, x2 = 0	1085.06	0.631
313.15 K, x2 = 0.1225	1079.97	0.6145
313.15 K, x2 = 0.238	1075.08	0.5875
313.15 K, x2 = 0.3499	1070.36	0.5709
313.15 K, x2 = 0.4545	1065.81	0.563
313.15 K, x2 = 0.5559	1061.54	0.5423
313.15 K, x2 = 0.6518	1057.46	0.5322
313.15 K, x2 = 0.7445	1053.56	0.5192
313.15 K, x2 = 0.8332	1049.86	0.4992
313.15 K, x2 = 0.9182	1046.32	0.4874
323.15 K, x2 = 0	1074.26	0.5677
323.15 K, x2 = 0.1225	1068.8	0.5546
323.15 K, x2 = 0.238	1063.63	0.5273
323.15 K, x2 = 0.3499	1058.61	0.5145
323.15 K, x2 = 0.4545	1053.8	0.5039
323.15 K, x2 = 0.5559	1049.32	0.4878
323.15 K, x2 = 0.6518	1044.96	0.4729
323.15 K, x2 = 0.7445	1040.83	0.4591
323.15 K, x2 = 0.8332	1036.88	0.4468
323.15 K, x2 = 0.9182	1033.12	0.4365
333.15 K, x2 = 0	1063.32	0.5069
333.15 K, x2 = 0.1225	1057.53	0.4954
333.15 K, x2 = 0.238	1052.07	0.4791
333.15 K, x2 = 0.3499	1046.76	0.4619
333.15 K, x2 = 0.4545	1041.66	0.452
333.15 K, x2 = 0.5559	1036.93	0.4401
333.15 K, x2 = 0.6518	1032.33	0.4277
333.15 K, x2 = 0.7445	1027.92	0.415
333.15 K, x2 = 0.8332	1023.72	0.4046
333.15 K, x2 = 0.9182	1019.74	0.3949
343.15 K, x2 = 0	1052.44	0.4658
343.15 K, x2 = 0.1225	1046.33	0.455
343.15 K, x2 = 0.238	1040.54	0.4326
343.15 K, x2 = 0.3499	1034.93	0.4242
343.15 K, x2 = 0.4545	1029.51	0.4142
343.15 K, x2 = 0.5559	1024.52	0.3978
343.15 K, x2 = 0.6518	1019.67	0.3879
343.15 K, x2 = 0.7445	1014.99	0.377
343.15 K, x2 = 0.8332	1010.53	0.3678
343.15 K, x2 = 0.9182	1006.31	0.3609
